“Also recorded” adds a separate entry of the source.
Assays:
Format in all cases: in vivo, human
[1] = test system: uterine leiomyomas; assay: Oral absorption-enhanced DIM in women with uterine leiomyomas, tumor volume by serial pelvic ultrasound; conditions: for Post-DIM Treatment Tumor Volume: oral absorption-enhanced DIM
Description: Expected results are clinical improvement in symptoms and reduction of leiomyoma size documented in serial sonograms. […] Women with uterine leiomyomas have been selected based on the findings of abnormal uterine sonograms showing measurable leiomyoma documented on more than one occasion. Three subjects were proceeding to provide a baseline 12-hour urine collection and began to take absorbable DIM 150 to 450 mg [37.5-112 mg actual DIM] twice daily for 3-6 months. Two women have completed participation in a preliminary study, completing 2 and 6 month treatment periods. Subject A was a multiparous person with regular menstrual periods, taking thyroid hormone replacement to correct primary hypothyroidism and using no other medications. Subject B was a person taking no medications with regular periods. After informed consent, a pretreatment ultrasound was obtained for each subject. Each subject provided a 12 or 24 hour urine specimen which was frozen. Subject A began taking 2 capsules twice daily of absorption-enhanced DIM (BioResponse, LLC, Boulder Colo.) providing DIM at […]. Subject B took 3 capsules twice daily of absorption-enhanced DIM (BioResponse, LLC, Boulder Colo.) providing DIM at […]. After 2 months of treatment, Subject A was re-evaluated by the same ultrasound technician using the same equipment and at the same phase of their menstrual cycle. A post treatment urine was also obtained, collected at the same point in the menstrual cycle as the baseline urine sample. Similarly, Subject B was re-evaluated after 6 months of treatment using absorption-enhanced DIM (BioResponse-DIM). They took a higher twice daily dose providing […]. Their re-evaluation included pelvic ultrasonography following a series of 3 pre-treatment pelvic ultrasound evaluations all performed with the same equipment. Like Subject A, Subject B provided a before and after DIM treatment urine sample. The pelvic ultrasound data were analysed using a mathematical formula to calculate the pre-treatment and post-treatment volume of individual leiomyoma based on the widest diameter and the diameter perpendicular to this measured in centimeters (cm). A calculation of individual tumor volume was performed, treating each tumor as an ovoid mass, using the formula: V=4/3π(H/2)^2(L/2), where V=volume in cubic centimeters (cm^3), H=tumor height in centimeters (cm), and L=tumor length in centimeters (cm). This method provided individual tumor volumes in cubic centimeters (cm^3).

[2] = test system: estrogen metabolites in urine; assay: GCMS assay of urinary estrogen metabolites before and after DIM treatment; conditions: after vs before DIM
Description: After informed consent, a pretreatment ultrasound was obtained for each subject. Each subject provided a 12 or 24 hour urine specimen which was frozen. Subject A began taking 2 capsules twice daily of absorption-enhanced DIM (BioResponse, LLC, Boulder Colo.) providing DIM at […]. Subject B took 3 capsules twice daily of absorption-enhanced DIM (BioResponse, LLC, Boulder Colo.) providing DIM at […]. After 2 months of treatment, Subject A was re-evaluated by the same ultrasound technician using the same equipment and at the same phase of their menstrual cycle. A post treatment urine was also obtained, collected at the same point in the menstrual cycle as the baseline urine sample. Similarly, Subject B was re-evaluated after 6 months of treatment using absorption-enhanced DIM (BioResponse-DIM). They took a higher twice daily dose providing […]. Their re-evaluation included pelvic ultrasonography following a series of 3 pre-treatment pelvic ultrasound evaluations all performed with the same equipment. Like Subject A, Subject B provided a before and after DIM treatment urine sample.
The urine samples were tested at the Bradlow/Sepkovic Laboratory, Hackensack University Medical Center, Hackensack, N.J. The technique utilized was an established gas chromatography-mass spectrometry (GCMS) assay for estradiol (E2), estrone (E1), 2-hydroxy estrone (2OH-E1), 4-hydroxy estrone (4OH-E1), 16-hydroxy estrone (16OH-E1), and estriol (E3) in urine (Michnovicz et al., 1997, J Natl Cancer Inst. 89(10):718-23). […] Laboratory analysis is expected to show an increase in 2-hydroxy estrone, and a decrease in 16-hydroxy estrone, as measured in pre-treatment as compared to post-treatment urine samples. […] Results of before and after DIM treatment are presented in Table 8, showing the metabolites of interest as a percent of the total estrogen metabolites measured and as ratios of the amounts of 2OH-E1 to 16OH-E1 (2OH-E1/16OH-E1) determined for each sample. […]

[3] = test system: uterine leiomyoma; assay: Clinical case: oral absorption-enhanced DIM in a person with symptomatic uterine leiomyoma; conditions: after two months
Description: A person was symptomatic from uterine leiomyoma, experiencing painful menses with excessive bleeding, frequency of urination, and inability to exercise due to tiredness. […] A blood test indicated mild anemia. […] The patient initiated therapy with capsules of DIM, formulated for enhanced absorption as described in Example 1. A dose of 120 mg of DIM formulation, given three times per day, delivering 30 mg of actual DIM per dose, was used.

[4] = test system: estrogen metabolites in urine; assay: GCMS assay of urinary estrogen metabolites before and after DIM treatment
[5] = 30 mg actual DIM three times per day
[6] = Subject A, 200 mg/day DIM, taken for 2 months
[7] = Subject B, 300 mg/day DIM, taken for 6 months

c1ccc2c(Cc3c[nH]c4ccccc34)c[nH]c2c1 [DIM, 3,3′-diindolylmethane]
average percent reduction in tumor volume ([1]; Subject A, 2 month treatment): 33.5%
Percent Decrease in Tumor Volume ([1]; Subject A, Tumor 1, oral DIM 200 mg/day, 2 months): 83.11%
Post-DIM Treatment Tumor Volume ([1]; Subject A, Tumor 1, 200 mg/day DIM, 2 months): 3.783 cm^3
Percent Decrease in Tumor Volume ([1]; Subject A, Tumor 2, oral DIM 200 mg/day, 2 months): 2.06%
Post-DIM Treatment Tumor Volume ([1]; Subject A, Tumor 2, 200 mg/day DIM, 2 months): 114.4901 cm^3
Percent Decrease in Tumor Volume ([1]; Subject A, Tumor 3, oral DIM 200 mg/day, 2 months): 15.32%
Post-DIM Treatment Tumor Volume ([1]; Subject A, Tumor 3, 200 mg/day DIM, 2 months): 53.2 cm^3
average reduction in tumor volume ([1]; Subject B, 6 month treatment): 78.6%
Percent Decrease in Tumor Volume ([1]; Subject B, Tumor 1, oral DIM 300 mg/day, 6 months): 71.9605%
Post-DIM Treatment Tumor Volume ([1]; Subject B, Tumor 1, 300 mg/day DIM, 6 months): 5.575 cm^3
Percent Decrease in Tumor Volume ([1]; Subject B, Tumor 2, oral DIM 300 mg/day, 6 months): 47.75%
Post-DIM Treatment Tumor Volume ([1]; Subject B, Tumor 2, 300 mg/day DIM, 6 months): 1.877 cm^3
Percent Decrease in Tumor Volume ([1]; Subject B, Tumor 3, oral DIM 300 mg/day, 6 months): 38.51%
Post-DIM Treatment Tumor Volume ([1]; Subject B, Tumor 3, 300 mg/day DIM, 6 months): 6.094 cm^3
Percent Decrease in Tumor Volume ([1]; Subject B, Tumor 4, oral DIM 300 mg/day, 6 months): 53.06%
Post-DIM Treatment Tumor Volume ([1]; Subject B, Tumor 4, 300 mg/day DIM, 6 months): 0.8849 cm^3
Percent Decrease in Tumor Volume ([1]; Subject B, Tumor 5, oral DIM 300 mg/day, 6 months): 62.41%
Post-DIM Treatment Tumor Volume ([1]; Subject B, Tumor 5, 300 mg/day DIM, 6 months): 0.7964 cm^3
leiomyoma size by serial pelvic ultrasound ([1]; preliminary treatment of women with oral DIM): meaningful reduction of leiomyoma size; also recorded: consistent reduction of intra-uterine leiomyoma size
side effects associated with reduction in leiomyoma volume ([1]; women treated with oral DIM, 2 and 6 months): not associated with amenorrhea, hypo-estrogenemia, hot flashes, or other reported side effects
change in 16OH-E1 ([2]; Subject A): treatment related reduction
change in 4OH-E1 ([2]; Subject B, treated at a higher dose): treatment related reduction
change in 2OH-E1 and the 2OH-E1/16OH-E1 ratio ([2]; both Subjects): large treatment related increases
repeat abdominal exam [3, 5]: no visible or palpable pelvic masses
repeat pelvic exam [3, 5]: normal appearing uterine cervix and a palpable uterus of much reduced size
myoma-related symptoms described by the patient ([3]; 120 mg DIM formulation (30 mg actual DIM) three times per day): normal menstrual flow with normal levels of discomfort and improved energy
2OH-E1/16OH-E1 ratio, After DIM [4, 6]: 1.7
2OH-Estrone (2OH-E1), percent of total estrogen metabolites measured, After DIM [4, 6]: 8.3%
4OH-Estrone (4OH-E1), percent of total estrogen metabolites measured, After DIM [4, 6]: 0.7%
16OH-Estrone (16OH-E1), percent of total estrogen metabolites measured, After DIM [4, 6]: 4.9%
2OH-E1/16OH-E1 ratio, After DIM [4, 7]: 9.5
2OH-Estrone (2OH-E1), percent of total estrogen metabolites measured, After DIM [4, 7]: 35%
4OH-Estrone (4OH-E1), percent of total estrogen metabolites measured, After DIM [4, 7]: 1.7%

Source: patent US8080577B2, “Diindolylmethane formulations for the treatment of leiomyomas” (Bioresponse, L.L.C., priority 2004, dated 2011)
